From ChEMBL document CHEMBL2074319, “The antiviral nucleotide analogs cidofovir and adefovir are novel substrates for human and rat renal organic anion transporter 1” (Mol Pharmacol, 1999)

Columns and labels:
[1] = molecular target: T1, Solute carrier family 22 member 6 (Homo sapiens, UniProt Q4U2R8); assay: TP_TRANSPORTER: inhibition of PAH uptake (PAH: 50 uM, BCG: 1000 uM) in Xenopus laevis oocytes; type: functional, cell-based; conditions: oocyte
T1 sequence (Q4U2R8 whole entry): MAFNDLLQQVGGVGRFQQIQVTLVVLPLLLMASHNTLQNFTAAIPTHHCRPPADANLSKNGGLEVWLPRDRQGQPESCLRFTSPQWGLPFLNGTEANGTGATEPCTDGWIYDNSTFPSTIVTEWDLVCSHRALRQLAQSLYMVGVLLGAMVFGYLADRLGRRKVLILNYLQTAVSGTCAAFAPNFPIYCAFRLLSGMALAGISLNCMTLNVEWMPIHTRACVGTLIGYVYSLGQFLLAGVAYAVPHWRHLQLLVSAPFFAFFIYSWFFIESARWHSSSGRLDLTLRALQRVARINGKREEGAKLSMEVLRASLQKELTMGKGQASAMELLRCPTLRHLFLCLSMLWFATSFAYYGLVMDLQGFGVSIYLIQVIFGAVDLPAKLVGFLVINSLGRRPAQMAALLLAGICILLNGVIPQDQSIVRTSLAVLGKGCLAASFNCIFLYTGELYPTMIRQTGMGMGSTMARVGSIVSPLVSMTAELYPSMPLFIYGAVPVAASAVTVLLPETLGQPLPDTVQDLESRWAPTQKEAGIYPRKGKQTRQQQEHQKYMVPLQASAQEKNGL

[2] = molecular target: T1, Solute carrier family 22 member 6; assay: (§1) TP_TRANSPORTER: uptake in Xenopus laevis oocytes; type: functional, cell-based; conditions: oocyte
[3] = molecular target: T2, Solute carrier family 22 member 6 (Rattus norvegicus, UniProt O35956); assay: as §1; type: functional, cell-based; conditions: oocyte
T2 sequence (O35956 whole entry): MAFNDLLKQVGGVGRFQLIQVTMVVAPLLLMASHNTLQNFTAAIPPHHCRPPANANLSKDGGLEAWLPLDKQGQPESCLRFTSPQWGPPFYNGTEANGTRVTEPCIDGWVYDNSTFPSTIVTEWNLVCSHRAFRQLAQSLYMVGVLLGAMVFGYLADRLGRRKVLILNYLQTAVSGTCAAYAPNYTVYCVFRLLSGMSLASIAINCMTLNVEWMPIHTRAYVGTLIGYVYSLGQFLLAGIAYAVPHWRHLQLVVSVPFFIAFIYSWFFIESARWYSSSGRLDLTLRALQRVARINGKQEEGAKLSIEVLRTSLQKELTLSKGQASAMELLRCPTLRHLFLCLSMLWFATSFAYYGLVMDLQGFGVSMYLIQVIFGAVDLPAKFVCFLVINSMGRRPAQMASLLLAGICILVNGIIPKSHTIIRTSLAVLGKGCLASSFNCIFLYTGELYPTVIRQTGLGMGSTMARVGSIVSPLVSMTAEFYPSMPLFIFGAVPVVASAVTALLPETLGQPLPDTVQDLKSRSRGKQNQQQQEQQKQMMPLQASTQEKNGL

[4] = molecular target: T1, Solute carrier family 22 member 6; assay: TP_TRANSPORTER: inhibition of PAH uptake (PAH: 50 uM, alpha-KG: 1000 uM) in Xenopus laevis oocytes; type: functional, cell-based; conditions: oocyte
[5] = molecular target: T1, Solute carrier family 22 member 6; assay: TP_TRANSPORTER: inhibition of PAH uptake (PAH: 50 uM, 2,4-D: 1000 uM) in Xenopus laevis oocytes; type: functional, cell-based; conditions: oocyte
[6] = substrate: Nc1ccn(C[C@@H](CO)OCP(=O)(O)O)c(=O)n1; assay: as §1; type: functional, cell-based, Oocyte
[7] = substrate: Nc1ncnc2c1ncn2CCOCP(=O)(O)O; assay: as §1; type: functional, cell-based, Oocyte

Cc1c(C2(c3cc(Br)c(O)c(Br)c3C)OS(=O)(=O)c3ccccc32)cc(Br)c(O)c1Br [BROMCRESOL GREEN]
Activity [1]: inhibitor [(at a rough estimate) <5 % of control]

Nc1nc2c(ncn2CCOCP(=O)(O)O)c(=O)[nH]1 [GS-438]
Activity [2]: substrate [+] | Activity [3]: substrate [+]

Nc1nc(N)c2ccn(CCOCP(=O)(O)O)c2n1
Activity [2]: substrate [+] | Activity [3]: substrate [+]

O=C(O)CCC(=O)C(=O)O [ALPHA-KETOGLUTARIC ACID]
Activity [4]: inhibitor [(at a rough estimate) 5 % of control]

O=C(O)COc1ccc(Cl)cc1Cl [2,4-DICHLOROPHENOXYACETIC ACID]
Activity [5]: inhibitor [(at a rough estimate) <5 % of control]

B1: Solute carrier family 22 member 6 (Rattus norvegicus) (protein)
chain: MAFNDLLKQVGGVGRFQLIQVTMVVAPLLLMASHNTLQNFTAAIPPHHCRPPANANLSKDGGLEAWLPLDKQGQPESCLRFTSPQWGPPFYNGTEANGTRVTEPCIDGWVYDNSTFPSTIVTEWNLVCSHRAFRQLAQSLYMVGVLLGAMVFGYLADRLGRRKVLILNYLQTAVSGTCAAYAPNYTVYCVFRLLSGMSLASIAINCMTLNVEWMPIHTRAYVGTLIGYVYSLGQFLLAGIAYAVPHWRHLQLVVSVPFFIAFIYSWFFIESARWYSSSGRLDLTLRALQRVARINGKQEEGAKLSIEVLRTSLQKELTLSKGQASAMELLRCPTLRHLFLCLSMLWFATSFAYYGLVMDLQGFGVSMYLIQVIFGAVDLPAKFVCFLVINSMGRRPAQMASLLLAGICILVNGIIPKSHTIIRTSLAVLGKGCLASSFNCIFLYTGELYPTVIRQTGLGMGSTMARVGSIVSPLVSMTAEFYPSMPLFIFGAVPVVASAVTALLPETLGQPLPDTVQDLKSRSRGKQNQQQQEQQKQMMPLQASTQEKNGL
Km [6]: 238 µM | Km [7]: 270 µM

B2: Solute carrier family 22 member 6 (Homo sapiens) (protein)
chain: MAFNDLLQQVGGVGRFQQIQVTLVVLPLLLMASHNTLQNFTAAIPTHHCRPPADANLSKNGGLEVWLPRDRQGQPESCLRFTSPQWGLPFLNGTEANGTGATEPCTDGWIYDNSTFPSTIVTEWDLVCSHRALRQLAQSLYMVGVLLGAMVFGYLADRLGRRKVLILNYLQTAVSGTCAAFAPNFPIYCAFRLLSGMALAGISLNCMTLNVEWMPIHTRACVGTLIGYVYSLGQFLLAGVAYAVPHWRHLQLLVSAPFFAFFIYSWFFIESARWHSSSGRLDLTLRALQRVARINGKREEGAKLSMEVLRASLQKELTMGKGQASAMELLRCPTLRHLFLCLSMLWFATSFAYYGLVMDLQGFGVSIYLIQVIFGAVDLPAKLVGFLVINSLGRRPAQMAALLLAGICILLNGVIPQDQSIVRTSLAVLGKGCLAASFNCIFLYTGELYPTMIRQTGMGMGSTMARVGSIVSPLVSMTAELYPSMPLFIYGAVPVAASAVTVLLPETLGQPLPDTVQDLESRWAPTQKEAGIYPRKGKQTRQQQEHQKYMVPLQASAQEKNGL
Km [6]: 46 µM | Km [7]: 30 µM
